# Key:
# [1] = tested on: OVA-sensitized rat anaphylactic models; assay: Survival of OVA-sensitized BN rats after anaphylactic shock induced by OVA (Example 1); assay type: in vivo, BN/Crj rats (female); conditions: for Survival Rate: day 0 to 9, OVA challenge day 10
# Method: (§1) Using female BN/Crj rats of 7 weeks old, sensitization by OVA was carried out as described below.
# (§2) 10 mg/kg of OVA and 300 mg/kg of aluminum hydroxide (Alum) were intraperitoneally given (10 ml/kg) on the day (day 0) of administration. On day 3, 7 and 9 after the sensitization, blood samples were collected, the serum was separated and IgE concentration was determined. On day 10 after the sensitization, 60 mg/kg of OVA dissolved in physiological saline was given to the rats from the tail vein to cause anaphylactic shock. On the other hand, blood samples were collected at the jugular vein before and after the induction of the anaphylactic shock by OVA, and, after separation of the plasma, histamine level was determined.
# (§3) The drug suspended in 1% carboxymethylcellulose (CMC) was repeatedly given orally once a day from day 0 to 9. […] All animals in each group were weighed in the morning once a week and the drug was given upon the body weights as weighed. To the solvent control group was given a 1% CMC solution. And further, non-medicated groups and non-treated groups were prepared. No treatment was applied to the non-treated group. The test was carried out using 6 rats per group.
# (§4) The effect of the anilide compounds (I) on BN rats was evaluated from the survival rates of BN rats, the IgE levels in the sera and the histamine levels in the plasma before and after the induction of anaphylactic shock by OVA.
# [2] = tested on: autoimmune diseases such as articular rheumatism, systemic lupus erythematosus and the like; conditions: diseased animal models; cited from earlier work
# [3] = tested on: IgE; assay: Serum IgE level of OVA-sensitized BN rats by sandwich-type ELISA (Example 1); assay type: in vivo, BN/Crj rats (female); conditions: day 9 after OVA sensitization, mean ± SD
# Method: as §1, §2, §3, §4
# The IgE level in sera was determined using the homemade sandwich-type ELISA system.
# [4] = tested on: histamine; assay: Plasma histamine level before and after induction of anaphylactic shock by OVA (Example 1); assay type: in vivo, BN/Crj rats (female); conditions: 10 mg/kg orally once a day, ± SD; for Histamine amount, after OVA challenge: day 10, after OVA challenge; for Histamine amount, before OVA challenge: day 10, before OVA challenge
# Method: as §1, §2, §3
# Then, the plasma histamine levels before and after the induction of the anaphylactic shock by OVA on day 10 after OVA sensitization were determined as a parameter for allergic reactions.
# [5] = after administration; cited from earlier work
# [6] = tested on: IgE; assay: Minimum effective dose of leflunomide: serum IgE level of OVA-sensitized BN rats (Example 2); assay type: in vivo, BN/Crj rats (female); conditions: for Serum IgE amount: day 9 after OVA, ± SD
# Method: (§5) Using female BN/Crj rats of 7 weeks old, sensitization by OVA was carried out as described below. 10 mg/kg of OVA and 300 mg/kg of aluminum hydroxide (Alum) were intraperitoneally given on the day (day 0) of administration. Blood samples were collected on day 3, 5, 7 and 9 after the sensitization, the serum was separated and IgE concentration was determined. And, 60 mg/kg of the OVA dissolved in physiological saline was given to the rats from the tail vein to cause anaphylactic shock.
# (§6) The drug suspended in 1% carboxymethylcellulose (CMC) was repeatedly given orally once a day from day 0 to 9. […] All animals in each group were weighed in the morning once a week and the drug was given upon the body weights as weighed. A 1% CMC solution was given to the solvent control group. And further, non-treated group was prepared as control to which no treatment was applied. The test was carried out using 6 rats per group.
# [7] = tested on: OVA-sensitized rat anaphylactic models; assay: Minimum effective dose of leflunomide: survival of OVA-sensitized BN rats after anaphylactic shock (Example 2); assay type: in vivo, BN/Crj rats (female); conditions: for Survival Rate: day 0 to 9
# Method: as §5, §6
# [8] = tested on: mice; conditions: cited from earlier work
# [9] = tested on: mast cells; conditions: cited from earlier work
# [10] = leflunomide 0.5 mg/kg orally once a day
# [11] = leflunomide 1 mg/kg orally once a day
# [12] = leflunomide 2 mg/kg orally once a day
smiles,measurement,setting,value
"C/C(O)=C(\C#N)C(=O)Nc1ccc(C(F)(F)F)cc1 [Compound A, N-(4-trifluoromethylphenyl)-2-cyano-3-hydroxy-crotonamide]",Survival Rate,[1]; 10 mg/kg orally once a day,33%
same,effect on autoimmune diseases,[2],"have an effect on autoimmune diseases such as articular rheumatism, systemic lupus erythematosus and the like"
same,IgE amount in sera,[3]; 10 mg/kg orally once a day,0.3 ± 0.0 µg/mL
same,"Histamine amount, after OVA challenge",[4],0.1 ± 0.0 µM
same,"Histamine amount, before OVA challenge",[4],0.2 ± 0.1 µM
"Cc1cc(NC(=O)C(C#N)C(=O)C2CC2)ccc1C(F)(F)F (centres unmarked) [Compound B, 1-(3-methyl-4-trifluoromethylphenylcarbamoyl)-2-cyclopropyl-2-oxo-propionitrile]",Survival Rate,[1]; 10 mg/kg orally once a day,100%
same,IgE amount in sera,[3]; 10 mg/kg orally once a day,0.6 ± 0.5 µg/mL
same,"Histamine amount, after OVA challenge",[4],1.3 ± 1.8 µM
same,"Histamine amount, before OVA challenge",[4],0.4 ± 0.1 µM
"CN(C(=O)C(C#N)C(=O)C1CC1)c1ccc(Cl)cc1 (centres unmarked) [Compound C, 2-cyano-3-cyclopropyl-3-oxo-N-methyl-N-(4-chlorophenyl)-propionamide]",Survival Rate,[1]; 10 mg/kg orally once a day,100%
same,IgE amount in sera,[3]; 10 mg/kg orally once a day,0.5 ± 0.1 µg/mL
same,"Histamine amount, after OVA challenge",[4],0.1 ± 0.0 µM
same,"Histamine amount, before OVA challenge",[4],0.3 ± 0.2 µM
"N#Cc1ccc(NC(=O)C(C#N)C(=O)C2CC2)cc1 (centres unmarked) [Compound D, 2-cyano-3-cyclopropyl-3-oxo-(4-cyanophenyl) propionamide]",Survival Rate,[1]; 10 mg/kg orally once a day,100%
same,IgE amount in sera,[3]; 10 mg/kg orally once a day,0.6 ± 0.1 µg/mL
same,"Histamine amount, after OVA challenge",[4],0.6 ± 0.5 µM
same,"Histamine amount, before OVA challenge",[4],0.4 ± 0.2 µM
"C#CCCC(=O)C(C#N)C(=O)Nc1ccc(C(F)(F)F)cc1 (centres unmarked) [Compound E, 2-cyano-3-oxo-N-[4-(trifluoromethyl)phenyl]-6-heptinamide]",Survival Rate,[1]; 10 mg/kg orally once a day,100%
same,IgE amount in sera,[3]; 10 mg/kg orally once a day,0.4 ± 0.1 µg/mL
same,"Histamine amount, after OVA challenge",[4],0.1 ± 0.0 µM
same,"Histamine amount, before OVA challenge",[4],0.3 ± 0.1 µM
"Cc1oncc1C(=O)Nc1ccc(C(F)(F)F)cc1 [Leflunomide, 5-methylisoxazole-4-carboxylic acid-N-(4-trifluoromethyl) anilide]",conversion to pharmacologically active Compound A,[5],converted to pharmacologically active Compound A as defined above by rapid metabolism after administration
same,survival without anaphylactic shock,[1]; 2 mg/kg,all animals survived without any anaphylactic shock
same,Survival Rate,[1]; 2 mg/kg orally once a day,100%
same,effect on autoimmune diseases,[2],"have an effect on autoimmune diseases such as articular rheumatism, systemic lupus erythematosus and the like"
same,inhibition of increase in serum IgE level,[6]; after antigen sensitization,can inhibit an increase in the serum IgE level after the antigen sensitization
same,Serum IgE amount,[6]; [10],357.7 ± 119.0 µg/mL
same,Serum IgE amount,"[6]; leflunomide 0.5 mg/kg orally once a day, listed as leflunomide",357.7 µg/mL
same,Serum IgE amount,[6]; [11],0.8 ± 0.1 µg/mL
same,Serum IgE amount,"[6]; leflunomide 1 mg/kg orally once a day, listed as leflunomide",0.8 µg/mL
same,Serum IgE amount,[6]; [12],0.4 ± 0.1 µg/mL
same,Serum IgE amount,"[6]; leflunomide 2 mg/kg orally once a day, listed as leflunomide",0.4 µg/mL
same,Survival Rate,[7]; [10],0%
same,survival without anaphylactic shock,[7]; leflunomide 1 mg/kg,all animals survived without any anaphylactic shock
same,Survival Rate,[7]; [11],100%
same,survival without anaphylactic shock,[7]; leflunomide 2 mg/kg,all animals survived without any anaphylactic shock
same,Survival Rate,[7]; [12],100%
same,LD50 (p.o.),[8],445 mg/kg
same,IgE amount in sera,[3]; 2 mg/kg orally once a day,0.4 ± 0.1 µg/mL
same,IgE amount in sera,"[3]; 2 mg/kg orally once a day, listed as leflunomide",0.4 µg/mL
same,inhibitory effect on histamine-release from mast cells,[9],has an inhibitory effect on histamine-release from mast cells
C[C@]12C=CC(=O)C=C1CC[C@@H]1[C@@H]2[C@@H](O)C[C@@]2(C)[C@H]1CC[C@]2(O)C(=O)CO [Prednisolone],Survival Rate,[1]; 2 mg/kg orally once a day,0%
same,IgE amount in sera,[3]; 2 mg/kg orally once a day,148.1 ± 72.0 µg/mL
same,IgE amount in sera,"[3]; 2 mg/kg orally once a day, listed as prednisolone",148.1 µg/mL

# Reference: patent US5814649A, “Preventive and remedy for type 1 allergic diseases” (priority 1994, dated 1998)
